Source: patent publication US5968737A, “Method of identifying inhibitors of glutathione S-transferase (GST) gene expression” (The University of Mississippi, priority 1996, dated 1999)
Where two headings read alike, the source gives them in different places.

How the values were obtained:
[1] = tested on: RAR-β levels in MGR-3 cells; test: Induction of RAR-β in nuclear extracts of RA-treated MGR-3 cells (immunoprecipitation); type: cell-based; conditions: Homo sapiens, 48-hr exposure, read-out: increase in RAR-β levels compared to untreated controls
[2] = tested on: GST-π gene expression in MGR-3 cells; test: Retinoic acid effect on GST-π gene expression in tumor cells (Northern and Western blotting); type: cell-based; conditions: Homo sapiens
Description: Retinoic acid effect on GST-π gene expression in tumor cells. To further determine the functionality of the RAREs in GST-π gene of MGR-3 cell line, we examined changes in GST-π gene transcripts in MGR-3 cells after exposure to RA. For this study, MGR-3 cells in exponential growth were treated with 1 μM all-trans RA. Another set cultures without RA treatment served as controls. After 24 and 48 hrs incubation at 37° C., total RNA was extracted and GST-π gene transcript levels were determined by Northern blotting, as described earlier. Alterations in GST-π protein content was determined in cells similarly treated with 1 μM all-trans RA. Cultures were harvested after 0, 12, 24 and 48 hrs post-RA exposure, cell extracts prepared from them, as previously described, and subjected to Western blotting with anti-GST-π antibodies.

[3] = target: T1, human GST-π variant GSTP1b-1b, recombinant, encoded by hGSTP1*B (Ile104→Val104; SEQ ID NO:5 and SEQ ID NO:6) (Homo sapiens, UniProt P09211, I105V); test: Enzyme kinetics: catalysis of the conjugation of GSH with CDNB by purified recombinant GST-π protein; type: biochemical; conditions: 25° C., 0.1M K-phosphate buffer pH 8.3, 2.5 mM GSH
T1 construct: made in house; host or cells: E. coli (XL1 Blue, pBK-CMV vector)
Description: (§1) FIGS. 8A-C. Lineweaver-Burke plots for the catalysis of the conjugation of GSH with CDNB by GSH-affinity chromatography purified recombinant GSTP1a-1a (FIG. 8A), GSTP1b-1b (FIG. 8B) and GSTP1c-1c (FIG. 8C). Reaction rates were determined with 2.5 mM GSH and 0.015 unit of each enzyme.
(§2) Purification and enzyme kinetic analysis of variant GST-π proteins. Functional consequences of the structural differences in the GST-π variant proteins was determined by the differential ability of the recombinant GST-π proteins to catalyze the conjugation of GSH with 1-chloro-2,4-dinitrobenzene (CDNB), a universal GST substrate. After expression in E. coli, the three GST-π proteins were purified by GSH-affinity chromatography on S-hexyl glutathione linked to epoxy-activated sepharose 6B, as previously described (Simons and Van der Jagt, 1981) and then used for enzyme kinetic analysis. Reaction mixtures (25° C.) in 100 mM potassium phosphate buffer, pH 8.3 contained 0.5-2.5 mM CDNB, 2.5 mM GSH and 0.015 unit of purified GST-π protein. The change in absorbance was monitored at 340 nm over two minutes and used to compute reaction rates. The rates of the spontaneous reactions of GSH with CDNB, determined with reaction mixtures in which the GST-π enzyme was replaced with buffer, were subtracted from the rates of the enzyme catalyzed reactions. The resulting reaction rates were used to generate double reciprocal plots from which Vmax and Km values were determined, using standard methodology (Segel, 1976).

[4] = target: T2, human GST-π GSTP1a-1a, recombinant, encoded by hGSTP1*A (Ile104, Ala113; SEQ ID NO:3 and SEQ ID NO:4) (Homo sapiens, UniProt P09211); test: as above; type: biochemical; conditions: 25° C., 0.1M K-phosphate buffer pH 8.3, 2.5 mM GSH
T2 construct: made in house; host or cells: E. coli (XL1 Blue, pBK-CMV vector)
Description: as §1, §2

[5] = target: T3, human GST-π variant GSTP1c-1c, recombinant, encoded by hGSTP1*C (Ile104→Val104, Ala113→Val113; SEQ ID NO:7 and SEQ ID NO:8) (Homo sapiens, UniProt P09211, A114V/I105V); test: as above; type: biochemical; conditions: 25° C., 0.1M K-phosphate buffer pH 8.3, 2.5 mM GSH
T3 construct: made in house; host or cells: E. coli (XL1 Blue, pBK-CMV vector)
Description: as §1, §2

[6] = listed as 1-Chloro-2,4-dinitrobenzene

T2 sequence (P09211 2-210 limits assumed): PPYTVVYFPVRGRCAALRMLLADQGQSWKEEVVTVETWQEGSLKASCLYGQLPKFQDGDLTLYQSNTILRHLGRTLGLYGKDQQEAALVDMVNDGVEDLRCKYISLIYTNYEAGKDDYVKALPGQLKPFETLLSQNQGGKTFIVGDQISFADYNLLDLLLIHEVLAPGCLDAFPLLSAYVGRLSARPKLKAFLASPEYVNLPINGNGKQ
T3 sequence (P09211 2-210 I105V/A114V): as the sequence (P09211 2-210 limits assumed) above, with I104V, A113V counted along it
T1 sequence (P09211 2-210 I105V): as the sequence (P09211 2-210 limits assumed) above, with I104V counted along it

**Q.** How did the fold induction at 1 µM [1] turn out when `CC1=C(/C=C/C(C)=C/C=C/C(C)=C/C(=O)O)C(C)(C)CCC1` [all-trans retinoic acid] was run?
**A.** Its fold induction at 1 µM is > 3.

**Q.** What about the fold induction at 1 µM ([2]; 1.0 μM, 48 hr, Northern analysis, read-out: increase in the level of GST-π gene transcripts relative to control levels (maximum)) of the same compound?
**A.** Its fold induction at 1 µM is 3.4.

**Q.** And the fold induction at 1 µM ([2]; 1 μM, 48 hrs, Western blot, read-out: increase in GST-π protein content relative to untreated controls)?
**A.** The fold induction at 1 µM was 2.8.

**Q.** Which results are given for `O=[N+]([O-])c1ccc(Cl)c([N+](=O)[O-])c1` [CDNB, 1-chloro-2,4-dinitrobenzene]?
**A.** Vmax (CDNB) [3]: 1.7 ± 0.087 µmol/min/mg; Km ([3]; 0.5-2.5 mM CDNB): 2700 ± 23 µM; Vmax (CDNB) [3, 6]: 1.6 ± 0.087 µmol/min/mg; Vmax (CDNB) [4]: 4.7 ± 0.03 µmol/min/mg; Km ([4]; 0.5-2.5 mM CDNB): 980 µM; Vmax (CDNB) [4, 6]: 4.7 ± 0.03 µmol/min/mg; Vmax (CDNB) [5]: 1.4 ± 0.23 µmol/min/mg; Km ([5]; 0.5-2.5 mM CDNB): 3100 ± 170 µM; Vmax (CDNB) [5, 6]: 1.4 ± 0.23 µmol/min/mg
